{
  "source": "patent US20140113949A1",
  "about": "“METHODS FOR REDUCING NEURODEGENERATION” (NESTEC S.A., priority 2011, published 2014)",
  "key": {"mTOR": {"system": "mTOR", "assay": "mTOR mRNA expression by semi-quantitative qPCR in MDCK cells", "type": "cell-based, Canine", "details": "mRNA normalized to TATA box binding protein", "protocol": "(§1) Cell Culture procedure: Commercially available Madin Darby Canine Kidney (MDCK) cells were obtained from ATCC as a stock suspension of immortalized cells. MDCK cells were cultured at 37° C. in an atmosphere of 95% air/5% CO2 and Dulbecco's Modified Eagle Medium (DMEM) media containing 10% fetal calf serum and 1% antibiotic/antimicrobial solution (DMEM-loaded). The media was changed and cells passed every 1 to 2 days using a solution containing 0.05% trypsin. For RNA extraction, cells were plated at a seeding density of 50,000 to 60,000 cells/cm^2 in 35 mm dishes. Twenty-four hours after seeding, media was changed to either control (DMEM-loaded) or test media (DMEM-loaded+1 nM melatonin). Cells were harvested 1, 3, or 5 days after exposure to control or test media. Media was changed in the remaining dishes on the days of cell harvesting. Total RNA was harvested from MDCK cell lysates using RNAlater RNA stabilization reagent and following the manufacturer's directions (Ambion, Austin, Tex.). mRNA transcripts of mTOR, S6 Kinase, and TATA box binding protein genes were analyzed by semi-quantitative qPCR on days 1, 3, and 5 of media treatment. TATA box binding protein gene transcript was used to normalize the expression of mTOR and S6 Kinase, as it is widely used as a “housekeeping” gene. The procedure in Example 1 was repeated."}, "S6 Kinase": {"system": "S6 Kinase", "assay": "S6 Kinase mRNA expression by semi-quantitative qPCR in MDCK cells", "type": "cell-based, Canine", "details": "mRNA normalized to TATA box binding protein", "protocol": "as §1"}, "[1]": {"details": "Trial 1, Day 1, control media + 1 nM melatonin"}, "[2]": {"details": "Trial 1, Day 3, control media + 1 nM melatonin"}, "[3]": {"details": "Trial 1, Day 5, control media + 1 nM melatonin"}, "[4]": {"details": "Trial 2, Day 1, control media + 1 nM melatonin"}, "[5]": {"details": "Trial 2, Day 3, control media + 1 nM melatonin"}, "[6]": {"details": "Trial 2, Day 5, control media + 1 nM melatonin"}},
  "data": [
    {"smiles": "COc1ccc2[nH]cc(CCNC(C)=O)c2c1", "note": "[melatonin, 5-methoxy-N-acetyltryptamine]", "values": [
      {"measurement": "mTOR Induction", "setting": "mTOR; [1]", "value": 0.93},
      {"measurement": "mTOR Induction", "setting": "mTOR; [2]", "value": 0.76},
      {"measurement": "mTOR Induction", "setting": "mTOR; [3]", "value": 0.49},
      {"measurement": "mTOR Induction", "setting": "mTOR; [4]", "value": 0.98},
      {"measurement": "mTOR Induction", "setting": "mTOR; [5]", "value": 1.02},
      {"measurement": "mTOR Induction", "setting": "mTOR; [6]", "value": 1.01},
      {"measurement": "S6 Kinase Induction", "setting": "S6 Kinase; [1]", "value": 1.14},
      {"measurement": "S6 Kinase Induction", "setting": "S6 Kinase; [2]", "value": 0.66},
      {"measurement": "S6 Kinase Induction", "setting": "S6 Kinase; [3]", "value": 0.51},
      {"measurement": "S6 Kinase Induction", "setting": "S6 Kinase; [4]", "value": 1.05},
      {"measurement": "S6 Kinase Induction", "setting": "S6 Kinase; [5]", "value": 0.82},
      {"measurement": "S6 Kinase Induction", "setting": "S6 Kinase; [6]", "value": 0.75}
    ]}
  ]
}
